Assay results: patent US20140024132A1, “METHODS AND SYSTEMS USING INTEGRATED METABOLOMICS AND PHARMACOKINETICS FOR MULTI-COMPONENT DRUG EVALUATION” (priority 2010, published 2014)

Legend:
[1] = system: human metabolite endpoints; experiment: Urinary metabolomic response during 6-week study (24 h, 2 week daily Pu-erh tea intake, 2 week wash-out) vs pre-dose, OPLS-DA and S-plot; format: in vivo; details: 2 week of Pu-erh tea daily intake vs pre-dose, human urine
Procedure: (§1) Volunteers were provided with identical standard meals three times per day during the experiment (e.g., breakfast: milk and bread; lunch: beef and vegetables; dinner: pork and cabbage). […] Urine samples were stored at −80° C. before analysis.

[2] = system: endogenous urinary metabolite profiles; experiment: Altered endogenous urinary metabolites after a single Pu-erh tea intake, UPLC-QTOFMS and GC-TOFMS profiling; format: in vivo; details: human urine
Procedure: (§2) Participants received a dose equivalent to 5 cups of commercially prepared tea. Twenty healthy men (n=10) and women (n=10) whose mean age was 25±2 years (range 22-32) were enrolled in this study, and written consent was obtained from each participant.
as §1
(§3) The tea infusion used in this study and the collected urine samples were centrifuged at 13,000 rpm for 10 min at 4° C., and the resulting supernatants were immediately stored at −80° C. pending UPLC-QTOFMS analysis. Ultrapure water (500 μL) was added to the tea or urine sample (500 μL) and vortexed for 1 min. The sample was then filtered through a syringe filter (0.22 μm) for UPLC-QTOFMS analysis.; incorporated by reference herein in its entirety.
(§4) The tea infusion (100 μL) described in Example 2 and urine samples (100 μL) were spiked with two internal standard solutions (10 μL-2-chlorophenylalanine in water, 0.3 mg/ml; 10 μL heptadecanoic acid in methanol, 1 mg/mL), and vortexed for 10 seconds. The mixed solution was extracted with 300 μL of methanol:chloroform (v/v 3:1) and vortexed for 30 seconds. After storing for 10 min at −20° C., the samples were centrifuged at 10,000 rpm for 10 min. An aliquot of the 300 μL supernatant was transferred to a glass sampling vial to vacuum dry at room temperature. The residue was derivatized using a two-step procedure. First, 80 μL methoxyamine (15 mg/mL in pyridine,) was added to the vial and kept at 30° C. for 90 min followed by 80 μL BSTFA (1% TMCS) at 70° C. for 60 min. See protocols set forth in Ni et al., FEBS Lett. 581: 707-711 (2007).; incorporated by reference herein in its entirety.
(§5) UPLC: Tea and urine metabolite profiling were performed using a Waters ACQUITY UPLC system equipped with a binary solvent delivery manager and a sample manager (Waters Corporation, Milford, Mass., USA), coupled to a Micromass Q-TOF Premier mass spectrometry equipped with an electrospray interface (Waters Corporation, Milford, M A, USA). Chromatographic separations were performed on a 2.1×100 mm 1.7 μm ACQUITY BEH C18 chromatography column. The column was maintained at 45° C. and eluted with a 1-99% acetonitrile (0.1% (v/v) formic acid)-aqueous formic acid (0.1% (v/v) formic acid) gradient over 10 min at a flow rate of 0.40 mL/min. A 5 μL aliquot sample was injected onto the column.
(§6) Mass Spectrometry: The mass accuracy analysis and detailed MS parameters were optimized according to our prior studies, which is incorporated herein in its entirety. During metabolite profiling experiments, centroid data was acquired for each sample from 50 to 1000 Da with a 0.10 sec scan time and a 0.01 sec interscan delay over a 10 min analysis time. A metabonomics MS System Test Mixture including acetaminophen, tolbutamide, 3′-azido-3′-deoxythymidine, reserpine, verapamil and coumarin was used as chromatographic reference and mass accuracy quality control. This test mixture was injected every ten injections. The mass spectrometer was operated in positive ion mode. The desolvation temperature was set to 400° C. at a flow rate of 700 L/hr and source temperature of 100° C. The capillary and cone voltages were set to 3500 and 45 V, respectively. The data was collected between 50-1000 m/z with alternating collision energy, at 5 eV for precursor ion information generation and a collision profile from 10-40 eV for fragment ion information. The Q-TOF Premier™ was operated in v mode with 10,000 mass resolving power. Data were centroided during acquisition using independent reference lock-mass ions via the LockSpray™ interface to ensure mass accuracy and reproducibility. Leucine-enkephalin was used as the reference compound at a concentration of 50 pg/μL and an infusion flow rate of 0.05 mL/min.

[3] = Urine levels of absorbed (bioavailable) Pu-erh tea components after a single Pu-erh tea intake, UPLC-QTOFMS and GC-TOFMS profiling; format: in vivo, human; details: absorbed Pu-erh tea metabolite, human urine
Procedure: as §2, §1, §3, §4, §5, §6

[4] = Urine levels of biotransformed Pu-erh tea metabolites (produced in vivo) after a single Pu-erh tea intake, UPLC-QTOFMS and GC-TOFMS profiling; parameters: species or system human
Procedure: Approximately 1 kg of 5-year-old Pu-erh tea was mixed to produce a homogeneous sample, and then ground into a fine powder and filtered through a 20 mesh screen. The Pu-erh tea was prepared by infusing 10 g powder in 200 mL boiling water for 10 min, followed by straining. Participants received a dose equivalent to 5 cups of commercially prepared tea. Twenty healthy men (n=10) and women (n=10) whose mean age was 25±2 years (range 22-32) were enrolled in this study, and written consent was obtained from each participant.
Volunteers were provided with identical standard meals three times per day during the experiment (e.g., breakfast: milk and bread; lunch: beef and vegetables; dinner: pork and cabbage). Urine samples of 12 healthy men (n=6) and women (n=6) selected from the 20 participants were collected just before breakfast including the 200 mL Pu-erh tea and at 1 h, 3 h, 6 h, 9 h, 12 h, and 24 h thereafter. Spot urine samples of all 20 participants were collected daily between 11:00 and 11:30 a.m. during a 6-week period that included a 2-week baseline phase, a 2-week daily Pu-erh tea ingestion phase, and a 2-week post-dosing phase. […] Urine samples were stored at −80° C. before analysis.
as §3, §4, §5
Mass Spectrometry: The mass accuracy analysis and detailed MS parameters were optimized according to our prior studies, which is incorporated herein in its entirety. During metabolite profiling experiments, centroid data was acquired for each sample from 50 to 1000 Da with a 0.10 sec scan time and a 0.01 sec interscan delay over a 10 min analysis time. A metabonomics MS System Test Mixture including acetaminophen, tolbutamide, 3′-azido-3′-deoxythymidine, reserpine, verapamil and coumarin was used as chromatographic reference and mass accuracy quality control. This test mixture was injected every ten injections. The mass spectrometer was operated in positive ion mode. […]

[5] = 1 h after Pu-erh tea intake vs pre-dose
[6] = 3 h after Pu-erh tea intake vs pre-dose
[7] = 6 h after Pu-erh tea intake vs pre-dose
[8] = 9 h after Pu-erh tea intake vs pre-dose
[9] = 12 h after Pu-erh tea intake vs pre-dose
[10] = 24 h after Pu-erh tea intake vs pre-dose

For 3-chlorotyrosine-2-aminobenzoic acid, the “change of urinary excretion / concentration” value [1] was “decreased”.
For `Oc1ccc2[nH]c(O)cc2c1` [2,5-dihydroxy-1H-indole], the “change of urinary excretion / concentration” value [1] was “decreased”.
With `COc1ccccc1O` [2-Methoxyphenol] the “FC (fold change)” value [2, 5] was 0.48, the “FC (fold change)” value [2, 6] was 0.31 and the “FC (fold change)” value [2, 7] was 0.31. For the same molecule, the “FC (fold change)” value [2, 8] was 0.41, the “FC (fold change)” value [2, 9] was 0.59 and the “FC (fold change)” value [2, 10] was 0.61.
In the case of `O=C(O)c1cc(O)cc(O)c1` [3,5-hydroxy benzoic acid], the “FC (fold change)” value ([3]; 9 h post-dose vs pre-dose) was 0.42, the “FC (fold change)” value ([3]; 12 h post-dose vs pre-dose) was 0.47 and the “FC (fold change)” value ([3]; 24 h post-dose vs pre-dose) was 0.20.
With `NCCCC(=O)O` [4-Aminobutanoic acid] the “FC (fold change)” value [2, 5] was 3.95, the “FC (fold change)” value [2, 6] was 5.14 and the “FC (fold change)” value [2, 7] was 24.12. The “FC (fold change)” value [2, 8] was 39.08, the “FC (fold change)” value [2, 9] was 100.29 and the “FC (fold change)” value [2, 10] was 49.03. The “FC (fold change)” value ([3]; 1 h post-dose vs pre-dose) was 3.95, the “FC (fold change)” value ([3]; 3 h post-dose vs pre-dose) was 5.14 and the “FC (fold change)” value ([3]; 6 h post-dose vs pre-dose) was 24.12. For the same molecule, the “FC (fold change)” value ([3]; 9 h post-dose vs pre-dose) was 39.08, the “FC (fold change)” value ([3]; 12 h post-dose vs pre-dose) was 100.29 and the “FC (fold change)” value ([3]; 24 h post-dose vs pre-dose) was 49.03.
With `COc1cc(CC(=O)O)ccc1O` [4-Hydroxy-3-methoxyphenylacetic acid] the “FC (fold change)” value [2, 5] was 0.39, the “FC (fold change)” value [2, 6] was 0.11 and the “FC (fold change)” value [2, 7] was 0.27. For the same molecule, the “FC (fold change)” value [2, 8] was 0.55, the “FC (fold change)” value [2, 9] was 0.85 and the “FC (fold change)” value [2, 10] was 1.12.
In the case of `COc1ccc(CC(=O)O)cc1` [4-methoxyphenylacetic acid], the “change of urinary excretion / concentration” value [1] was “increased”.
For `Cc1cnc(C)c(O)c1C=O` [5-Deoxypyridoxal], the “FC (fold change)” value ([3]; 1 h post-dose vs pre-dose) was 2.56, the “FC (fold change)” value ([3]; 3 h post-dose vs pre-dose) was 3.69 and the “FC (fold change)” value ([3]; 6 h post-dose vs pre-dose) was 3.68. For the same molecule, the “FC (fold change)” value ([3]; 9 h post-dose vs pre-dose) was 2.35, the “FC (fold change)” value ([3]; 12 h post-dose vs pre-dose) was 0.91 and the “FC (fold change)” value ([3]; 24 h post-dose vs pre-dose) was 0.81.
For `N[C@@H](Cc1c[nH]c2ccc(O)cc12)C(=O)O` [5-hydroxytryptophan], the “change of urinary excretion / concentration” value [1] was “increased”.
With `NC(C(=O)O)C(=O)O` [Aminomalonic acid] the “FC (fold change)” value [2, 5] was 1.90, the “FC (fold change)” value [2, 6] was 3.09 and the “FC (fold change)” value [2, 7] was 3.09. For the same molecule, the “FC (fold change)” value [2, 8] was 0.45, the “FC (fold change)” value [2, 9] was 0.57 and the “FC (fold change)” value [2, 10] was 0.35.
For `O=C(O)CC(O)(CC(=O)O)C(=O)O` [Citric acid], the “FC (fold change)” value ([3]; 1 h post-dose vs pre-dose) was 1.42, the “FC (fold change)” value ([3]; 3 h post-dose vs pre-dose) was 1.76 and the “FC (fold change)” value ([3]; 6 h post-dose vs pre-dose) was 1.59. For the same molecule, the “FC (fold change)” value ([3]; 9 h post-dose vs pre-dose) was 1.20, the “FC (fold change)” value ([3]; 12 h post-dose vs pre-dose) was 1.42 and the “FC (fold change)” value ([3]; 24 h post-dose vs pre-dose) was 1.17.
In the case of `CCN` [Ethylamine], the “FC (fold change)” value [4, 6] was 3.10, the “FC (fold change)” value [4, 7] was 3.87 and the “FC (fold change)” value [4, 8] was 2.65. The “FC (fold change)” value [4, 9] was 3.09, the “FC (fold change)” value [4, 10] was 1.58 and the “FC (fold change)” value ([4]; l h after Pu-erh tea intake vs pre-dose) was 1.73.
With `NCC(=O)O` [Glycine] the “FC (fold change)” value ([3]; 1 h post-dose vs pre-dose) was 1.28, the “FC (fold change)” value ([3]; 3 h post-dose vs pre-dose) was 1.67 and the “FC (fold change)” value ([3]; 6 h post-dose vs pre-dose) was 2.32. For the same molecule, the “FC (fold change)” value ([3]; 9 h post-dose vs pre-dose) was 1.53, the “FC (fold change)” value ([3]; 12 h post-dose vs pre-dose) was 1.77 and the “FC (fold change)” value ([3]; 24 h post-dose vs pre-dose) was 1.04.
With `O=C(O)c1cccnc1` [Nicotinic acid] the “FC (fold change)” value ([3]; 1 h post-dose vs pre-dose) was 14.31, the “FC (fold change)” value ([3]; 3 h post-dose vs pre-dose) was 62.95 and the “FC (fold change)” value ([3]; 6 h post-dose vs pre-dose) was 78.98. The “FC (fold change)” value ([3]; 9 h post-dose vs pre-dose) was 63.95, the “FC (fold change)” value ([3]; 12 h post-dose vs pre-dose) was 49.02 and the “FC (fold change)” value ([3]; 24 h post-dose vs pre-dose) was 27.31.
In the case of `Oc1ccccc1` [Phenol], the “FC (fold change)” value [2, 5] was 1.04, the “FC (fold change)” value [2, 6] was 1.22 and the “FC (fold change)” value [2, 7] was 1.43. For the same molecule, the “FC (fold change)” value [2, 8] was 1.14, the “FC (fold change)” value [2, 9] was 1.32 and the “FC (fold change)” value [2, 10] was 2.22.
With `O=C(O)CCC(=O)O` [Succinate] the “FC (fold change)” value ([3]; 1 h post-dose vs pre-dose) was 1.15, the “FC (fold change)” value ([3]; 3 h post-dose vs pre-dose) was 0.90 and the “FC (fold change)” value ([3]; 6 h post-dose vs pre-dose) was 0.74. The “FC (fold change)” value ([3]; 9 h post-dose vs pre-dose) was 0.57, the “FC (fold change)” value ([3]; 12 h post-dose vs pre-dose) was 0.84 and the “FC (fold change)” value ([3]; 24 h post-dose vs pre-dose) was 0.93.
With `Cn1cnc2c1c(=O)[nH]c(=O)n2C` [Theobromine] the “FC (fold change)” value ([3]; 1 h post-dose vs pre-dose) was 4.04, the “FC (fold change)” value ([3]; 3 h post-dose vs pre-dose) was 6.76 and the “FC (fold change)” value ([3]; 6 h post-dose vs pre-dose) was 7.75. For the same molecule, the “FC (fold change)” value ([3]; 9 h post-dose vs pre-dose) was 5.42, the “FC (fold change)” value ([3]; 12 h post-dose vs pre-dose) was 4.43 and the “FC (fold change)” value ([3]; 24 h post-dose vs pre-dose) was 2.67.
With `Cn1c(=O)c2[nH]cnc2n(C)c1=O` [Theophylline] the “FC (fold change)” value ([3]; 1 h post-dose vs pre-dose) was 11.62, the “FC (fold change)” value ([3]; 3 h post-dose vs pre-dose) was 42.69 and the “FC (fold change)” value ([3]; 6 h post-dose vs pre-dose) was 54.55. The “FC (fold change)” value ([3]; 9 h post-dose vs pre-dose) was 45.99, the “FC (fold change)” value ([3]; 12 h post-dose vs pre-dose) was 38.67 and the “FC (fold change)” value ([3]; 24 h post-dose vs pre-dose) was 19.22.
For `CC(C)[C@H](N)C(=O)O` [Valine], the “FC (fold change)” value [2, 5] was 2.58, the “FC (fold change)” value [2, 6] was 1.25 and the “FC (fold change)” value [2, 7] was 2.16. The “FC (fold change)” value [2, 8] was 2.32, the “FC (fold change)” value [2, 9] was 2.76 and the “FC (fold change)” value [2, 10] was 1.38.
With `O[C@H]1[C@H](O)[C@@H](O)[C@H](O)[C@@H](O)[C@H]1O` [inositol] the “change of urinary excretion / concentration” value [1] was “increased”.
